For four compounds, IC50 results are on record in patent publication US20210269440A1 (BETTA PHARMACEUTICALS CO., LTD, priority 2018, published 2021).

In this assay the target is T1, PD-1/PD-L1 protein/protein interaction (Homo sapiens, UniProt Q9NZQ7).
T1 construct: Recombinant human PD-L1 protein (19-238) with a His-tag at the C-terminus; purchased AcroBiosystems PD1-H5229 (PD-L1); PD1-H5257 (PD-1)
T1 sequence (Q9NZQ7 19-238): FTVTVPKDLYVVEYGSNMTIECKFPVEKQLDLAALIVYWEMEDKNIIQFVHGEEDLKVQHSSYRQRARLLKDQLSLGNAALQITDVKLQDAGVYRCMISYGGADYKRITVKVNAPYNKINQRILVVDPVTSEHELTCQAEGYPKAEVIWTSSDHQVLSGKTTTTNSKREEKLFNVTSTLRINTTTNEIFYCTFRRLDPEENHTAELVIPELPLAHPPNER
Briefly: PD-1/PD-L1 homogenous time-resolved fluorescence (HTRF) binding assay.
Compound `Cc1c(/C=C/CCN2CCOCC2)cccc1-c1cccc(Nc2nccc3cc(CN4CCCCC4C(=O)O)cnc23)c1C` (stereo not shown) [Compound 57, (E)-1-((8-((2,2′-dimethyl-3′-(4-morpholinobut-1-en-1-yl)-[1,1′-biphenyl]-3-yl)amino)-1,7-naphthyridin-3-yl)methyl)piperidine-2-carboxylic acid] displayed an IC50 of 2 to 10 nM.
The result for `Cc1c(CCCCN2CCOCC2)cccc1-c1cccc(Nc2nccc3cc(CN4CCCCC4C(=O)O)cnc23)c1C` (stereo not shown) [Compound 58, 1-((8-((2,2′-dimethyl-3′-(4-morpholinobutyl)-[1,1′-biphenyl]-3-yl)amino)-1,7-naphthyridin-3-yl)methyl)piperidine-2-carboxylic acid] reads 2 to 10 nM; that for `COc1ccc(-c2cccc(Nc3nccc4cc(CN5CCCCC5C(=O)O)cnc34)c2C)cc1OCCCN1CCOCC1` (stereo not shown) [Compound 59, 1-((8-((4′-methoxy-2-methyl-3′-(3-morpholinopropoxy)-[1,1′-biphenyl]-3-yl)amino)-1,7-naphthyridin-3-yl)methyl)piperidine-2-carboxylic acid], 2 to 10 nM.
Next, `Cc1c(Nc2nccc3cc(CN4CCCCC4C(=O)O)cnc23)cccc1-c1ccc(C(F)(F)F)c(OCCCN2CCOCC2)c1` (stereo not shown) [Compound 60, 1-((8-((2-methyl-3′-(3-morpholinopropoxy)-4′-(trifluoromethyl)-[1,1′-biphenyl]-3-yl)amino)-1,7-naphthyridin-3-yl)methyl)piperidine-2-carboxylic acid]: above 150 nM.

Usually IC50 stands for the concentration at which inhibition is half-maximal. The low end stands for greater potency in that assay, the high end for weaker potency in that assay.
